Measurements published in ChEMBL document CHEMBL1201862, “PubChem BioAssay data set” (2004).
Active and inactive are the calls of the source.

How the values were obtained:
SUMO-activating enzyme = SUMO-activating enzyme (Homo sapiens, UniProt Q9UBT2); assay: SUMOylation inhibitor hit validation, confirmation, SUMOylation inhibitor project, biochemical, AlphaScreen (AID 2018); format: functional
[1] = target: T1, Mannose-6-phosphate isomerase (Homo sapiens, UniProt P34949); assay: human PMI inhibitors, high substrate, primary screen, biochemical, fluorescence intensity, high mannose 6-phosphate (AID 1220)
T1 sequence (P34949 whole entry): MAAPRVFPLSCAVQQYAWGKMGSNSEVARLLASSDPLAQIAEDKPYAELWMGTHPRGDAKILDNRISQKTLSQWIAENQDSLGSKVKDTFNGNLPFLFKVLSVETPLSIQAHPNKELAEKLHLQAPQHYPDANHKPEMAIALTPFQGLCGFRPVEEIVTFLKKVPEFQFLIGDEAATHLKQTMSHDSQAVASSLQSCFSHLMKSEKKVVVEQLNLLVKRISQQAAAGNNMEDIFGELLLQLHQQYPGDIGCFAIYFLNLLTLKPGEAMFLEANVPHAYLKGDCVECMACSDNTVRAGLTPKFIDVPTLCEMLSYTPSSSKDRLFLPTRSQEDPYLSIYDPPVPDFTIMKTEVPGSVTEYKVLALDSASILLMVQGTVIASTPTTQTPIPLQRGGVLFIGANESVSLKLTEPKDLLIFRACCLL

Wee1-like protein kinase = Wee1-like protein kinase (Homo sapiens, UniProt P30291); assay: Dose Response Cell-based Assay for Inhibitors of Wee1 Degradation. [Related pubchem assays: 1410, 1321 ]; format: functional
CHO = assay: cytotoxicity in TLR9-MyD88 CHO cells, dose response, cytotoxicity control for TLR9-MyD88 binding inhibitor project, cell-based, luminescence (AID 588339); format: functional, hamster; settings: Cricetulus griseus;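 note: CHO cells stably coexpressing TLR9 and MyD88 fusions from primary screen; compound exposure lasted 48 hours before viability readout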
[2] = target: Endoribonuclease toxin MazF (Escherichia coli K-12, UniProt P0AE70); assay: MazF toxin RNase activators, dose response, biochemical, fluorescence, single-stranded RNA substrate, uHTS hits (AID 588481); format: functional
[3] = target: T2, Serine/threonine-protein phosphatase (Candida dubliniensis (strain CD36 / CBS 7987 / NCPF 3949 / NRRLY-17841) (Yeast), UniProt B9W6M3); assay: calcineurin pathway inhibitors in yeast reporter, dose response, S. cerevisiae, CDRE-lacZ, luminescence, secondary (AID 2388); format: functional, cell-based;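 note: yeast reporter cells carrying a calcineurin-responsive lacZ construct stimulated with calcium chloride; luminescent beta-galactosidase reporter signal in whole cells rather than isolated phosphatase activity; potency for inhibition where a drop in reporter signal means calcineurin blockade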
T2 sequence (B9W6M3 whole entry): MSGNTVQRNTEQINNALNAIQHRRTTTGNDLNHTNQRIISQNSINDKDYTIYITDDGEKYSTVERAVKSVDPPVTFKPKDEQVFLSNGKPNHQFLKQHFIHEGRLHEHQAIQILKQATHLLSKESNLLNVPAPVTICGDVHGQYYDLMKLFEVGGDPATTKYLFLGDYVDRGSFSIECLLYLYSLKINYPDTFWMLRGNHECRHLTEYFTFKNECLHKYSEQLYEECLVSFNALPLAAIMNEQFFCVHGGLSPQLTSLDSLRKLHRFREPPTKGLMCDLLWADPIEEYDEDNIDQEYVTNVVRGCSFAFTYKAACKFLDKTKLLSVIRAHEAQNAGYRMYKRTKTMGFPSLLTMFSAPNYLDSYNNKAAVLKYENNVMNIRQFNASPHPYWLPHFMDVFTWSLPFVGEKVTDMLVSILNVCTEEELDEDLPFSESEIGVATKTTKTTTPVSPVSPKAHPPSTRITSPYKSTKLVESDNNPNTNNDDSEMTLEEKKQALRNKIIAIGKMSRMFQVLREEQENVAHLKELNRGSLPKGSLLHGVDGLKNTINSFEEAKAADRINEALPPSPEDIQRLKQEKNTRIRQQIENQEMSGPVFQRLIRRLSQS

BJ = assay: cytotoxicity toward BJ-TERT-LT-ST fibroblasts, dose response, cell-based, RAS-independent, luminescence (AID 1935); format: functional; settings: Homo sapiens;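 note: BJ fibroblasts immortalized with TERT plus LT and ST oncogenes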
[4] = cytotoxicity toward DRD oncogenic fibroblasts, dose response, cell-based, non-viral oncogenic, luminescence (AID 1934); format: functional; settings: Homo sapiens
Vero = assay: cells; format: functional; settings: Chlorocebus sabaeus
[5] = Shn3 3'UTR reporter inhibitors, dose response, cell-based, Clone20 osteoblasts, firefly luciferase, cherry-picked (AID 624132); format: functional;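 note: firefly luciferase luminescence from reporter carrying the Shn3 3'UTR in osteoblasts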
[6] = target: Heat shock cognate 71 kDa protein (Homo sapiens, UniProt P11142); assay: Hsc70 inhibitors, probe displacement, primary screen, biochemical, fluorescence polarization (AID 568)
[7] = target: T3, Neuropeptide Y receptor type 2 (Homo sapiens, UniProt P49146); assay: Fluorescence-based cell-based high-throughput dose response assay for agonists of NPY-Y2. [Related pubchem assays: 1703 (Screening assay (CNGC inhibitors).), 1359 (Screening assay (NPY-Y2 potentiators or agonists).), 1304 (Screening assay (NPY-Y1 potentiators or agonists).), 1710 (Screening assay (NPY-Y2 agonists).), 1791 (Summary AID.)]; format: functional
T3 sequence (P49146 whole entry): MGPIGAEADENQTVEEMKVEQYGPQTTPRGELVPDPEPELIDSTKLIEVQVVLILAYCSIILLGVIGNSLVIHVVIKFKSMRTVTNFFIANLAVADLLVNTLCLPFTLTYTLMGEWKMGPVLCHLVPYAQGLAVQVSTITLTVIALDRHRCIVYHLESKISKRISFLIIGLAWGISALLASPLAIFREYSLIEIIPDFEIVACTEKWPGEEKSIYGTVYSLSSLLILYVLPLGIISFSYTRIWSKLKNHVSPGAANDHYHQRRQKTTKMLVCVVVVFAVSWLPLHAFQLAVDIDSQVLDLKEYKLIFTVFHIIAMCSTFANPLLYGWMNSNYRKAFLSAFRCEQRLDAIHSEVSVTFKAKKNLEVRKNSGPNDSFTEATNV

[8] = HIV-1 Env-mediated cell fusion inhibitors, dose response, CCR5-tropic Env (AID 2279); format: functional
[9] = target: T4, Calpain-2 catalytic subunit (Sus scrofa, UniProt P43367); assay: pig calpain II inhibitor potency, dose response, biochemical, fluorogenic peptide substrate (AID 1420); format: functional
T4 sequence (P43367 whole entry): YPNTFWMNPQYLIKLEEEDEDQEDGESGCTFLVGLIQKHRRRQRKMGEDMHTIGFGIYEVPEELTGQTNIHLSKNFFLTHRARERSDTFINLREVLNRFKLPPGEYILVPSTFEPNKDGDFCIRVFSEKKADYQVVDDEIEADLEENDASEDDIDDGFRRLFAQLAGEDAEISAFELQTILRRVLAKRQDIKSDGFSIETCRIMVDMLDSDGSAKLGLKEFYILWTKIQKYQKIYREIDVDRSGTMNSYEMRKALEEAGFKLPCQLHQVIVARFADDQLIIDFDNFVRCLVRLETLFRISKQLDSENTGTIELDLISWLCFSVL

[10] = target: Small ubiquitin-related modifier 2 (Homo sapiens, UniProt P61956); assay: inhibitors of SUMO2 protein-protein interaction, dose response, selectivity assay for SUMO1 interaction inhibitor project, biochemical, FRET, human SUMO2, uHTS hits (AID 624384); format: functional; settings: read-out: IC50_Mean
[11] = target: Small ubiquitin-related modifier 1 (Homo sapiens, UniProt P63165); assay: inhibitors of SUMO1 partner interactions, dose response, biochemical, FRET (AID 624383); format: functional; settings: read-out: IC50_Mean
[12] = CellTiter-Glo luminescent dose response of DLD-1 viability loss (AID 1117352); format: functional

SUMO-activating enzyme, sequence (Q9UBE0 whole entry): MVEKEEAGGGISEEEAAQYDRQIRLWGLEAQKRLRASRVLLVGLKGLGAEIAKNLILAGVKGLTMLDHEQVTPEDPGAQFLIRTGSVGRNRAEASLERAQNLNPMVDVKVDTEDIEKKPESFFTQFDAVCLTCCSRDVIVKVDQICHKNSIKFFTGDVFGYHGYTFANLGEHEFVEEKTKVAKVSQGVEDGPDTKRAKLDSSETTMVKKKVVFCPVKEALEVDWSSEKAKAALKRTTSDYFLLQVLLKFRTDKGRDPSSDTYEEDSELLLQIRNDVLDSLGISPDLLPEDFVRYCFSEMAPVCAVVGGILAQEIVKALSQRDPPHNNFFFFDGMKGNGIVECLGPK
SUMO-activating enzyme, sequence (Q9UBT2 whole entry): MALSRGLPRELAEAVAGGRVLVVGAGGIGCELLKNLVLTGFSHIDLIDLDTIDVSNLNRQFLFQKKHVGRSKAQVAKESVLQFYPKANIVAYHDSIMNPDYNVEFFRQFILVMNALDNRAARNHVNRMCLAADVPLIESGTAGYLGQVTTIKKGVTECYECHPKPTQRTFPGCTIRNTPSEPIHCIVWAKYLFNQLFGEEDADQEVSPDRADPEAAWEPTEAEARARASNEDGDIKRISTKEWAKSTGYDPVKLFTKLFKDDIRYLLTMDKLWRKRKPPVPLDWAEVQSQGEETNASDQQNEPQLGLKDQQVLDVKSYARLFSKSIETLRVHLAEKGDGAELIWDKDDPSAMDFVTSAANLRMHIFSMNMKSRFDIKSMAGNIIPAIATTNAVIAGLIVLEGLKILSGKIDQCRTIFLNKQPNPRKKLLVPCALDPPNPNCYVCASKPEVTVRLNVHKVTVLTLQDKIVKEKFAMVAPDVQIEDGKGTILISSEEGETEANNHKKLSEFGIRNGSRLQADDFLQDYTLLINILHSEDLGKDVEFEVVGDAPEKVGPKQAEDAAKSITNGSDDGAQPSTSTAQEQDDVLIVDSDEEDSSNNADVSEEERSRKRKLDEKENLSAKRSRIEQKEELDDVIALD
Endoribonuclease toxin MazF, sequence (P0AE70 whole entry): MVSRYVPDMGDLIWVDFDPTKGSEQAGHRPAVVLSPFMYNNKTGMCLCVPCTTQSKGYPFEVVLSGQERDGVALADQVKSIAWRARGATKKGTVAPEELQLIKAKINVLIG
Small ubiquitin-related modifier 1, sequence (P63165 whole entry): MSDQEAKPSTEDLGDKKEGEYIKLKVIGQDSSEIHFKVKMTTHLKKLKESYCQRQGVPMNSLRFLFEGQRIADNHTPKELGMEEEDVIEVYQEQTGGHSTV
Wee1-like protein kinase, sequence (P30291 whole entry, the tested form may be a part): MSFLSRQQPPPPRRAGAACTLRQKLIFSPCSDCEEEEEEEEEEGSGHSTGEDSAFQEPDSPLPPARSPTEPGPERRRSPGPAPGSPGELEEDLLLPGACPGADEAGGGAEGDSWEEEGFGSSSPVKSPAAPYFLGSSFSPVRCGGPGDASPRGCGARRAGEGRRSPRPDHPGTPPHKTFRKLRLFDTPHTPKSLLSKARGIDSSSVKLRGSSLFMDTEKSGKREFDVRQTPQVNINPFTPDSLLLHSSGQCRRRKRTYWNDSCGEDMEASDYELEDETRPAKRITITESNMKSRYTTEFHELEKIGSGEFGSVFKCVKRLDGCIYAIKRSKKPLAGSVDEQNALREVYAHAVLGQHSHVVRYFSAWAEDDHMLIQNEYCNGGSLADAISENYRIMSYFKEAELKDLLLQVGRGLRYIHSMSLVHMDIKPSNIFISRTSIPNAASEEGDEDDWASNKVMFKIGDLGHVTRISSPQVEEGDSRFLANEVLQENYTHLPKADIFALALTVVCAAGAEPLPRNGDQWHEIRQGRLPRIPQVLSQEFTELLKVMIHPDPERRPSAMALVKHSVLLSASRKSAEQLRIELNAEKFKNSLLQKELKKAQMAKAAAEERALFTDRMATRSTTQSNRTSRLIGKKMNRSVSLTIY
Heat shock cognate 71 kDa protein, sequence (P11142 whole entry): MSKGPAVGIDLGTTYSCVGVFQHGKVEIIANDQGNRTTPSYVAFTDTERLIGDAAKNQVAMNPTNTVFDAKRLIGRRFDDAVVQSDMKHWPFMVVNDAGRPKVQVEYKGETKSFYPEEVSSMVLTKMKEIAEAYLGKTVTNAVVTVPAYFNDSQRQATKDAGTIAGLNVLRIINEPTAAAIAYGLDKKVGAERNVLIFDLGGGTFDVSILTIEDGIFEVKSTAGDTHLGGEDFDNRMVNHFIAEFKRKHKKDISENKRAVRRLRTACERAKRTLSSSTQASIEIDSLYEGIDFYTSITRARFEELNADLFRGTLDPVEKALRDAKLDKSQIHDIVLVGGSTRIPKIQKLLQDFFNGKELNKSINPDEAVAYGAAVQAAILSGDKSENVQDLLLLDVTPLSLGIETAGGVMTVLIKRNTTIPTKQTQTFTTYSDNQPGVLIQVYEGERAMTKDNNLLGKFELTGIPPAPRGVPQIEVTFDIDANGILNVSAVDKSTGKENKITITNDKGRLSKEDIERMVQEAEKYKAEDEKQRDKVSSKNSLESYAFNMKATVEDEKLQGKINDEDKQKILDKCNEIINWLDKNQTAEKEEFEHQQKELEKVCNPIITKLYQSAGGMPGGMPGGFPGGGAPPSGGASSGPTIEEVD
Small ubiquitin-related modifier 2, sequence (P61956 whole entry): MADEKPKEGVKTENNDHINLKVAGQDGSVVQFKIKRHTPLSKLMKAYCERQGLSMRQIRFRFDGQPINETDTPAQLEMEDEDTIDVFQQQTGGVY

N#Cc1c(N2CCCCC2)nc(N)c2c(N)nc(SCC(=O)O)cc12
IC50 (SUMO-activating enzyme): 860 nM (active)

CC1(C)Cc2ccccc2C2=NNC(=O)C2=N1
IC50 [1]: 14100 nM (active)

O=[N+]([O-])c1ccc(Sc2cccc[n+]2[O-])c2nonc12
EC50 (Wee1-like protein kinase): > 1840 nM (active) | IC50 (CHO): 448 nM (active) | EC50 [2]: > 99000 nM (inactive)

CCCC(=O)NC(c1ccc(C(C)C)cc1)c1ccc2cccnc2c1O (configuration not stated)
EC50 [3]: > 180000 nM (inactive) | EC50 (BJ): 2100 nM (inconclusive) | EC50 [4]: 2350 nM (active) | CC50 (Vero): 2880 nM (active) | AC50 [5]: 470 nM (active)

Oc1c(Cl)cc(Cl)c(Cl)c1Cc1c(O)c(Cl)cc(Cl)c1Cl [HEXACHLOROPHENE]
IC50 [6]: 27400 nM (active) | EC50 [7]: > 11800 nM (not active) | IC50 [8]: 970 nM (active) | IC50 [9]: 3730 nM (active) | IC50 [10]: 15800 nM (active) | IC50 [11]: 38900 nM (inactive) | IC50 [12]: 15.7 nM (active)
